Experimental findings from publication PMC7796366, “Application of HPLC-DAD for In Vitro Investigation of Acetylcholinesterase Inhibition Activity of Selected Isoquinoline Alkaloids from Sanguinaria canadensis Extracts” (Molecules, 2021) are described below.

Where “and” joins values, the source holds several entries; their conditions need not be identical. Equal entries are not always repeated.

This assay concerns the target T1, acetylcholinesterase (Homo sapiens, UniProt P22303).
T1 construct: purchased Sigma-Aldrich (St. Louis, MO, USA)
The experiment in a line: biochemical. The note with it: for IC50: concentration of acetylcholinesterase 0.2 U/mL, HPLC-DAD; for inhibition: single alkaloid standard, addition of 125 µL of 1 mg/mL (250 µg/mL final), acetylcholinesterase 10 U/mL. The class given is biochemical. The method, then:
For determination of acetylcholinesterase inhibitory activity, HPLC analysis was performed on the same apparatus as determination of alkaloid contents on Polar RP column with mobile phase A containing methanol and 0.0025 M diethylamine, mobile phase B containing acetate buffer at pH 3.8 and 0.0025 M diethylamine, and mobile phase in gradient elution: 0–15 min, 10% A; 15–30 min, 10–70% A; 30–60 min, 70% A. Flow rate was 1 mL/min.
[…] Samples for determination of acetylcholinesterase inhibitory activity were prepared by addition of 50 µL of acetylthiocholine iodide, 50 µL of 5′-dithiobis-(2-nitrobenzoic acid), […], and phosphate buffer at pH 7.8 to obtain 500 µL of final solution. […] All components were mixed and samples were incubated for 15 min at 37 °C. Samples were filtrated by syringe filter (CHROMAFIL Xtra, PVDF-29/25 0.20 µm) and injected into the HPLC system.

T1 sequence (P22303 32-614, species assumed): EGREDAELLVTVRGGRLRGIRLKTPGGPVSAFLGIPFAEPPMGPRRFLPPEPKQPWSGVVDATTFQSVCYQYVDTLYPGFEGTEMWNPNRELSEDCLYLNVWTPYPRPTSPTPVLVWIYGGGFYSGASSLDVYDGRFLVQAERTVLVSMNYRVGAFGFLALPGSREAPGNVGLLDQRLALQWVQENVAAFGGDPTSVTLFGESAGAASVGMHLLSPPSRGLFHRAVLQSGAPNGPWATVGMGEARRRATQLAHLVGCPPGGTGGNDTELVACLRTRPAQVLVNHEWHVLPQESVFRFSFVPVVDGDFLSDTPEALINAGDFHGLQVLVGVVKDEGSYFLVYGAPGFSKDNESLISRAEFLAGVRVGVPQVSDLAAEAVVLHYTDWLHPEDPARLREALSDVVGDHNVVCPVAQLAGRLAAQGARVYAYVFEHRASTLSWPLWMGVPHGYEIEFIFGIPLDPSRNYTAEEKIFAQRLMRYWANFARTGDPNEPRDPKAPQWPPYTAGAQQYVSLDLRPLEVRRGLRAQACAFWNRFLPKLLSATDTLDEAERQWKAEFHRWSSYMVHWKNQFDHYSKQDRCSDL

As for `COc1ccc2cc3[n+](cc2c1OC)CCc1cc2c(cc1-3)OCO2` [Berberine], the “% inhibition of acetylcholinesterase activity” value is on record as “highest activity”.

As to `COc1ccc2c(c[n+](C)c3c4cc5c(cc4ccc23)OCO5)c1OC` [Chelerythrine], the IC50 – broadly, the concentration that gives 50% inhibition – is 0.718 µM and 0.72 µM; the inhibition (in general, the percentage by which the read-out fell short of the control) was 100%.

In the case of `CN1Cc2c(ccc3c2OCO3)[C@@H]2[C@H]1c1cc3c(cc1C[C@@H]2O)OCO3` [Chelidonine], the IC50 was 27 µM and the inhibition was 100%.

`CN1CCc2cc3c(cc2C(=O)Cc2ccc4c(c2C1)OCO4)OCO3` [Protopine] gave an IC50 of 65.5 µM and an inhibition of about 22%.

`C[n+]1cc2c3c(ccc2c2ccc4cc5c(cc4c21)OCO5)OCO3` [Sanguinarine] had an IC50 of 5.57 µM.
